How the values were obtained:
[1] = tested on: leukemia L 1210; experiment: Anti-tumour activity, leukemia L 1210, i.p. graft, i.p. treatment
Description: […] females (CNRS, Orleans) of 20 to 22 g
(a) i.p. graft--i.p. treatment
10^5 cells were grafted intraperitoneally on D0 and intraperitoneal treatment was carried out 24 hours later, D1, in one single injection.
PHD and PHM were suspended in a 4% Klucel (hydroxy propyl cellulose) solution (the word "Klucel" is a registered trademark of Hercules Incorporated, Delaware, U.S.A.).
The solutions of these compounds were prepared extemporaneously. The increase in life span, ILS (%), were calculated in comparison with the controls by the following formula: [formula] Deaths were recorded until day 30 for L 1210 tumour and until day 60 for S180 tumour.

[2] = tested on: sarcoma S 180; experiment: Anti-tumour activity, sarcoma S 180 ascite, i.p. graft, i.p. treatment; format: in vivo, mouse (Swiss female); settings: for ILS: single i.p. on D1
Description: Swiss female mice (Evic-Ceba, Bordeaux) of 20 to 22 g
10^6 cells intraperitoneally grafted on D0
intraperitoneal treatment 24 hours later, D1, in one single injection.
(§1) The solutions of these compounds were prepared extemporaneously.

[3] = tested on: L 1210 cells; experiment: Cytotoxicity on L 1210 cells in culture; format: cell-based; settings: read-out: ID50 (reduces by 50% the rate of growth of the cells); usually 24 to 48 hours contact
[4] = tested on: DNA; experiment: Platinum fixed on DNA of L 1210 cells in vivo; set-up: species or system mouse (DBA/2); settings: PDD 9 mg/kg, PHIC 150 mg/kg; two hours after treatment on D3
Description: DBA/2 mice received 10^6 L 1210 cells on D0 and were treated three days later with an amount of platinum compound equal to the LD0 in the healthy mouse. Two hours after treatment on D3, the animals were sacrificed. […] Platinum was monitored by atomic absorption for whole cells and also on the DNA which was purified by phenol extraction. […] Under these conditions, one fixed platinum atom per 3000 nucleotides was found, i.e. a total of 1% of the amount which penetrated the cells was complexed to DNA. […] 10^-16 of platinum per cell.

[5] = tested on: abdominal viscera; experiment: Peritonitis (adhesion and hardening of abdominal viscera); format: in vivo, mouse
Description: as §1
As discussed above this problem seems to be linked to the presence of the 1,2-diaminocyclohexane ligand.

[6] = tested on: mouse; experiment: Acute toxicity in the mouse; format: in vivo, mouse (Swiss female); settings: mouse, one single injection
Description: Acute toxicity, one single injection of the compound, was measured using Swiss female mice (Evic-Ceba, Bordeaux) of 21 to 23 g. and Sprague-Dawley rats. Ten animals were treated for each dose studied.

[7] = tested on: renal and hepatic parenchyma; experiment: Renal and hepatic toxicity; format: in vivo, mouse (Swiss female)
Description: It was thus of interest to compare the effects of the novel compound of the invention with those of the already known compounds listed above on the kidney and the liver, i.e. the organs in which the greatest amount of platinum accumulates.
Swiss female mice (Evic-Ceba, Bordeaux) of 20 to 22 g were treated by intraperitoneal route D0 and then sacrificed on D1, D4 and D10.
Slices 5 microns thick were coloured with hemalun eosine stain.

[8] = Stability in sodium chloride solution; format: physicochemical; settings: 9% sodium chloride
Description: This compound has an exceptionally high degree of solubility.
as §1

[9] = L 1210, 4 mg/kg i.p. on D1, day 30
[10] = S 180, 4 mg/kg i.p. on D1, day 60
[11] = S 180, 1 mg/kg i.p. on D1, day 60
[12] = S 180, 2 mg/kg i.p. on D1, day 60
[13] = S 180, 5 mg/kg i.p. on D1, day 60
[14] = S 180, 10 mg/kg i.p. on D1, day 60
[15] = S 180, 50 mg/kg i.p. on D1, day 60

## N.N.[Cl][Pt][Cl] [PDD, cis-dichlorodiammine platinum (II)]
[1]; 2 mg/kg, single i.p. on D1
  ILS: 28%
[1]; 4 mg/kg, single i.p. on D1
  ILS: 52%
[1]; 6 mg/kg, single i.p. on D1
  ILS: 75%
[1]; 8 mg/kg, single i.p. on D1
  ILS: 106%
[1]; [9]
  Survivals: 0%
[1]; L 1210, 6 mg/kg i.p. on D1, day 30
  Survivals: 0%
[1]; L 1210, 8 mg/kg i.p. on D1, day 30
  Survivals: 0%
[1]; summary for L 1210 and S 180
  Surviving animals having received L 1210 leukaemia and S 180 sarcoma: No
[2]; 4 mg/kg
  ILS: 41%
[2]; 8 mg/kg
  ILS: 65%
[2]; [10]
  Survivals: 0%
[2]; S 180, 8 mg/kg i.p. on D1, day 60
  Survivals: 0%
[3]
  IC50: 2330 nM
[4]
  Number of fixed platinum atoms per nucleotide on DNA: 1/30000
  amount that penetrated the cells which was complexed to DNA: 1%
  nucleotides per one fixed platinum atom: 3000 nucleotides
[5]; mouse, in vivo, ip
  occurrence of peritonitis in relation to the 1,2-diaminocyclohexane ligand: never observed

## NC1CCCCC1N.[Cl][Pt][Cl] (stereo not drawn) [PHD, CIS-DICHLORO(1,2-DIAMINOCYCLOHEXANE) PLATINUM (II)]
[1]; 1 mg/kg, single i.p. on D1
  ILS: 5%
[1]; 2 mg/kg, single i.p. on D1
  ILS: 49%
[1]; 4 mg/kg, single i.p. on D1
  ILS: 65%
[1]; L 1210, 1 mg/kg i.p. on D1, day 30
  Survivals: 0%
[1]; L 1210, 2 mg/kg i.p. on D1, day 30
  Survivals: 0%
[1]; [9]
  Survivals: 0%
[2]; 1 mg/kg
  ILS: 100%
[2]; 2 mg/kg
  ILS: 128%
[2]; 4 mg/kg
  ILS: 127%
[2]; [11]
  Survivals: 0%
[2]; [12]
  Survivals: 20%
[2]; [10]
  Survivals: 10%
[3]
  IC50: 130 nM
[6]
  LD0 (maximum nonlethal dose): 7 mg/kg
[7]; mouse, in vivo, ip
  renal and hepatic alterations: vascular alterations without any hyaline casts
[5]; mouse, in vivo, ip
  occurrence of peritonitis in relation to the 1,2-diaminocyclohexane ligand: seems to be correlated with the presence of 1,2-diaminocyclohexane

## NC1CCCCC1N.O=C([O-])CC(=O)[O-].[Pt+2] (stereo not drawn) [PHM, cis-malonato (1,2 diaminocyclohexane) platinum (II)]
[1]; 50 mg/kg, single i.p. on D1
  ILS: 103%
[1]; L 1210, 50 mg/kg i.p. on D1, day 30
  Survivals: 10%
[2]; 5 mg/kg
  ILS: 25%
[2]; 10 mg/kg
  ILS: 36%
[2]; 20 mg/kg
  ILS: 44%
[2]; 40 mg/kg
  ILS: 60%
[2]; 50 mg/kg
  ILS: 96%
[2]; [13]
  Survivals: 0%
[2]; [14]
  Survivals: 0%
[2]; S 180, 20 mg/kg i.p. on D1, day 60
  Survivals: 0%
[2]; S 180, 40 mg/kg i.p. on D1, day 60
  Survivals: 0%
[2]; [15]
  Survivals: 0%
[3]
  IC50: 390 nM
[7]; mouse, in vivo, ip
  renal and hepatic alterations: These alterations were observed
[5]; mouse, in vivo, ip
  occurrence of peritonitis in relation to the 1,2-diaminocyclohexane ligand: seems to be correlated with the presence of 1,2-diaminocyclohexane
  peritonitis: most of the mice reaching 30 days of survival treatment with PHM and PHIC developed peritonitis

## NC1CCCCC1N.O.O=S(=O)([O-])[O-].[Pt+2] (stereo not drawn) [PHS, cis-sulfatomonoaquo(1,2 diaminocyclohexane) platinum (II)]
[1]; 5 mg/kg, single i.p. on D1
  ILS: 112%
[1]; L 1210, 5 mg/kg i.p. on D1, day 30
  Survivals: 40%
[2]; 0.5 mg/kg
  ILS: 4%
[2]; 1 mg/kg
  ILS: 10%
[2]; 2 mg/kg
  ILS: 25%
[2]; 4 mg/kg
  ILS: 47%
[2]; 5 mg/kg
  ILS: 112%
[2]; S 180, 0.5 mg/kg i.p. on D1, day 60
  Survivals: 0%
[2]; [11]
  Survivals: 0%
[2]; [12]
  Survivals: 0%
[2]; [10]
  Survivals: 0%
[2]; [13]
  Survivals: 10%
[3]
  IC50: 190 nM
[7]; i.p. at ~LD0 (mg/kg): PDD 8, PAC 100, PHM 50, PHD 4, PHS 5, PHC 120, PHIC 150, D1, D4, D10
  renal and hepatic alterations: vascular dilation and proximal distorted tubules
[5]; i.p.
  occurrence of peritonitis in relation to the 1,2-diaminocyclohexane ligand: seems to be correlated with the presence of 1,2-diaminocyclohexane
[8]
  change to chlorinated derivative in sodium chloride solution: almost instantaneously to the formation of a yellow insoluble chlorinated compound

## cis-(t-aconitato) (1,2-diaminocyclohexane) platinum (II) [PHTA, reference compound]
[1]; 500 mg/kg, single injection on D1
  ILS: 13%
[6]
  LD0 (maximum nonlethal dose): > 500 mg/kg

## cis-citrato (1,2-diaminocyclohexane) platinum (II) [PHC]
[1]; 120 mg/kg, single i.p. on D1, with 5 mice only
  ILS: 90%
[1]; L 1210, 120 mg/kg i.p. on D1, day 30
  Survivals: 0%
[2]; 10 mg/kg
  ILS: 20%
[2]; 25 mg/kg
  ILS: 124%
[2]; 50 mg/kg
  ILS: 121%
[2]; [14]
  Survivals: 0%
[2]; S 180, 25 mg/kg i.p. on D1, day 60
  Survivals: 20%
[2]; [15]
  Survivals: 30%
[7]; mouse, in vivo, ip
  renal and hepatic alterations: did not provoke any significant alterations
[5]; mouse, in vivo, ip
  occurrence of peritonitis in relation to the 1,2-diaminocyclohexane ligand: seems to be correlated with the presence of 1,2-diaminocyclohexane

## cis-citratodiammineplatinum (II) [PAC]
[1]; 100 mg/kg, single injection on D1
  ILS: 17%
[6]
  LD0 (maximum nonlethal dose): 125 mg/kg
[7]; mouse, in vivo, ip
  renal and hepatic alterations: These alterations were observed
[5]; mouse, in vivo, ip
  occurrence of peritonitis in relation to the 1,2-diaminocyclohexane ligand: never observed

## cis-isocitratodiammineplatinum(II) [PAIC]
[1]; 75 mg/kg, single injection on D1
  ILS: 74%
[6]
  LD0 (maximum nonlethal dose): 75 mg/kg
[5]; mouse, in vivo, ip
  occurrence of peritonitis in relation to the 1,2-diaminocyclohexane ligand: never observed

Source: patent US4452812A, “Organic complex of platinum, its preparation and its use for treating malignant tumors” (Sanofi, priority 1980, dated 1984)
